Data from patent publication US11945807B2, “Splicing modulator antibody-drug conjugates and methods of use” (EISAI R&D MANAGEMENT CO., LTD., priority 2018, dated 2024).
Where two headings read alike, the source gives them in different places.

Legend:
MOLP8 cells = experiment: Cell viability CellTiter-Glo, MOLP8 (CD138-expressing); type: cell-based; conditions: for GI50: Homo sapiens, read-out: Payload GI50
Procedure: (§1) HCC1954 (American Type Culture Collection (ATCC)) breast ductal carcinoma cells were plated at 2000 cells/well in flat bottom 96-well tissue culture plates (Corning) in a total volume of 90 μL tissue culture medium supplemented with 10% fetal bovine serum (ThermoFisher Scientific). Cells were treated with a 3-fold serial dilution of compound from 200 nM to 0.03 nM. Each concentration was tested in triplicate. At the time of treatment, a plate of untreated cells was evaluated using CellTiter-Glo®2.0 Luminescent Cell Viability Assay according to the manufacturers recommendations (Promega; #G9241). CellTiter-Glo® 2.0 reagent was added to the medium, incubated, and assayed on an EnVision Multilabel Reader (PerkinElmer). Values represent time zero (T0). […] Percentage growth inhibition was calculated as: [(T144−T0)/(C−T0)]×100 for concentrations for which T144>/=T0 or [(T144−T0)/T0]×100 for concentrations for which T144<T0. The dose response curve plots were generated using Prism 7 (Graphpad) and fit using nonlinear regression analysis and the log(inhibitor) versus response-variable slope (four parameters).
(§2) Anti-CD138 ADCs were tested in the CD138-expressing MOLP8 multiple myeloma cell line. Similarly, anti-EPHA2 ADCs were tested in the EPHA2-expressing PC3 prostate cancer cell line.

THP1.1 = experiment: Payload cell potency and lethality CTGlo 72 h, THP1.1; type: cell-based
NCIH1568.1 = experiment: Payload cellular potency CTGlo-ATS 72 h, NCIH1568.1; type: cell-based; conditions: cell line #2, 72 h, corresponding free payload; for GI50: read-out: CTGlo-ATS GMean GI50 (nM) 72 h NCIH1568.1
[1] = Caco-2 permeability of ADC payload; type: in vitro ADME; conditions: human; for Papp B→A at 2 h, 10 NM: basolateral to apical, read-out: Permeability Mean Caco-2 B-A Perm (10e−G cm/s)
Caco-2 cells = experiment: Caco-2 permeability of ADC payload; type: in vitro ADME; conditions: for Perm. Mean Caco 2 A-B Perm (10e−6 cm/s) / Perm. Mean Caco 2 B-A Perm (10e−6 cm/s): corresponding free payload
N87 cells = experiment: Cell viability CellTiter-Glo, N87; type: cell-based, human; conditions: unconjugated payload of the ADC; for GI50: Homo sapiens
Procedure: as §1
(§3) HCC1954 (ATCC), 2000 cells/well), N87 (ATCC, 4000 cells/well), SKBR3 (ATCC, 3000 cells/well), and MCF7 (ATCC, 1500 cells/well) cell lines were used.

HCC1954 cells = experiment: Cell viability CellTiter-Glo, HCC1954; conditions: for GI50: Homo sapiens, HCC1954, read-out: Payload GI50 (nM)
NCIH1650.1 = experiment: Payload cellular potency CTGlo-ATS 72 h, NCIH1650.1; type: cell-based; conditions: cell line #1, 72 h, corresponding free payload; for GI50: read-out: CTGlo-ATS GMean GI50 (nM) 72 h NCIH1650.1
PC3 cells = experiment: Cell viability CellTiter-Glo, PC3 (EPHA2-expressing); type: cell-based; conditions: for GI50: Homo sapiens, PC-3, free payload of the ADC
Procedure: as §1, §2

MCF7 cells = experiment: Cell viability CellTiter-Glo, MCF7 (HER2-negative); type: cell-based; conditions: Homo sapiens, unconjugated payload of the ADC
Procedure: as §1, §3

[2] = Chemical stability of ADC payload, pH 5.5 buffer; type: physicochemical; conditions: for half-life at 20 μM: McIlvaine (citrate-phosphate) buffer, unconjugated payload, Citrate-Phosphate buffer pH 5.5, 37° C., read-out: Stability Mean Stability t1/2 pH5.5 (converted); for pH 5.5 Stability (t1/2, 37 C.): pH 5.5, 37 C., corresponding payload
From the text: (Eppendorf ThermoMixer). […] Time 0 was set to 100.

SF3b complex = biological target: T1, SF3b complex (Homo sapiens, UniProt O75533+Q7RTV0); experiment: SF3B1 binding / scintillation proximity assay (SPA)
T1 construct: The beads were suspended and added to the prepared nuclear extracts; endogenous in cells; host or cells: nuclear extracts
Procedure: A scintillation proximity assay was performed to measure the binding affinity of compounds (“payloads”) to the SF3b complex. Batch immobilization of anti-SF3B1 antibody (MBL) to anti-mouse PVT SPA scintillation beads (PerkinElmer) was prepared as follows: for every 2.5 mg of nuclear extracts, 5 μg of anti-SF3B1 antibody and 1.5 mg of beads were mixed in 150 μL PBS. The antibody-bead mixture was incubated for 30 min at RT and centrifuged at 18,000 g for 5 min. 150 μL PBS was used to resuspend every 1.5 mg antibody-bead mixture. The beads were suspended and added to the prepared nuclear extracts. The slurry was incubated for 2 hours at 4° C. with gentle mixing. The beads were then collected by centrifuging at 18,000 g for 5 min, and washed twice with PBS+0.1% Triton X-100. After a final centrifugation step, every 1.5 mg of beads was suspended with 150 μL of PBS. […] The mixture was incubated for 30 min, and luminescence signals were read using a MicroBeta2 Plate Counter (PerkinElmer). Prism 7 (Graphpad) was used for non-linear regression curve fitting of the data.

[3] = MOLP-8, unconjugated payload of the ADC in the row
[4] = read-out: CTGlo-ATS GMean GI50 (nM) 72 h THP1.1, cell line #3, 72 h, corresponding free payload
[5] = Caco-2, A-B, corresponding payload (Table 26), read-out: Permeability Caco-2 A-B (10e−6 cm/s)
[6] = Caco-2, unconjugated payload, apical to basolateral, 2 hours, read-out: Permeability Mean Caco-2 A-B Perm (10e−6 cm/s)
[7] = Caco-2, unconjugated payload, 2 hours
[8] = unconjugated payload of the ADC
[9] = unconjugated payload, payload cell potency and lethality
[10] = unconjugated payload of the ADC, HCC1954 cells

SMILES | GI50 (MOLP8 cells; [3]) | CTGlo-AT S Mean Min-Response % 72 h THP1.1 (THP1.1; unconjugated payload) | Papp A→B at 2 h, 10 NM [1, 5] | Papp A→B at 2 h, 10 NM [1, 6] | Papp B→A at 2 h, 10 NM [1, 7] | GI50 (N87 cells) | Payload Rmin (%) (N87 cells) | GI50 (HCC1954 cells) | GI50 (PC3 cells) | Payload Rmin (%) (PC3 cells; free payload of the ADC) | GI50 (MCF7 cells) | half-life at 20 μM [2] | pH 5.5 Stability (t1/2, 37 C.) [2] | GI50 (THP1.1; [9]) | further results
CC[C@H](O)[C@@H](C)C1OC1C[C@@](C)(O)/C=C/C=C(\C)[C@H]1OC(=O)C[C@H](O)CC[C@@](C)(OC(C)=O)[C@@H](OC(=O)N2CCNCC2)/C=C/[C@@H]1C (stereo in doubt) [D4, (2S,3S,6S,7R,10R,E)-7-acetoxy-10-hydroxy-2-((R,2E,4E)-6-hydroxy-7-((2S,3S)-3-((2R,3S)-3-hydroxypentan-2-yl)oxiran-2-yl)-6-methylhepta-2,4-dien-2-yl)-3,7-dimethyl-12-oxooxacyclododec-4-en-6-yl piperazine-1-carboxylate] | 1.15 nM | −99.957% | 0.1 ×10⁻⁶ cm/s | 0.1 ×10⁻⁶ cm/s | 1.79 ×10⁻⁶ cm/s | 3.24 nM | −81.775% | 1.7 nM | 11.1 nM | −55.97% | 11.4 nM | 106 h | 4.5 |  | GI50 (THP1.1; [4]): 10.9 nM; CTGlo-ATS GMean LD50 (nM) 72 h NCIH1568.1 (NCIH1568.1): 45.485 nM; GI50 (NCIH1568.1): 6.37 nM; Perm. Mean Caco 2 A-B Perm (10e−6 cm/s) (Caco-2 cells): 0.1 10e−6 cm/s; Perm. Mean Caco 2 B-A Perm (10e−6 cm/s) (Caco-2 cells): 1.79 10e−6 cm/s; CTGlo-ATS GMean LD50 (nM) 72 h NCIH1650.1 (NCIH1650.1): 1960.398 nM; GI50 (NCIH1650.1): 11.9 nM
CC[C@H](O)[C@@H](C)[C@H]1O[C@@H]1C[C@@](C)(O)/C=C/C=C(\C)[C@H]1OC(=O)C[C@H](O)CC[C@@](C)(OC(=O)N2CCNCC2)[C@@H](OC(C)=O)/C=C/[C@@H]1C [D8, (2S,3S,6S,7R,10R,E)-6-acetoxy-10-hydroxy-2-((R,2E,4E)-6-hydroxy-7-((2R,3R)-3-((2R,3S)-3-hydroxypentan-2-yl)oxiran-2-yl)-6-methylhepta-2,4-dien-2-yl)-3,7-dimethyl-12-oxooxacyclododec-4-en-7-yl piperazine-1-carboxylate] |  | −99.92% |  | 0.128 ×10⁻⁶ cm/s | 2.03 ×10⁻⁶ cm/s | 8.84 nM | −34.052% | 2.64 nM | 16.6 nM | −68.37% | 29.6 nM | 84.6 h |  |  | GI50 (THP1.1; [4]): 8.74 nM; CTGlo-ATS GMean LD50 (nM) 72 h NCIH1568.1 (NCIH1568.1): 68.125 nM; GI50 (NCIH1568.1): 6.57 nM; Perm. Mean Caco 2 A-B Perm (10e−6 cm/s) (Caco-2 cells): 0.128 10e−6 cm/s; Perm. Mean Caco 2 B-A Perm (10e−6 cm/s) (Caco-2 cells): 2.027 10e−6 cm/s; CTGlo-ATS GMean LD50 (nM) 72 h NCIH1650.1 (NCIH1650.1): >10000.00 nM; GI50 (NCIH1650.1): 19.1 nM
CC[C@H](O)[C@@H](C)[C@H]1O[C@@H]1C[C@H](C)/C=C/C=C(\C)[C@H]1OC(=O)C[C@H](O)CC[C@@](C)(OC(C)=O)[C@@H](OC(=O)N2CCNCC2)/C=C/[C@@H]1C [D9] |  | −99.938% |  | 1.15 ×10⁻⁶ cm/s | 16.1 ×10⁻⁶ cm/s |  |  |  |  |  |  | < 24 h |  |  | IC50 (SF3b complex): 2.18 nM
CC(=O)N1CCC(n2nnc3c(F)cc(/C=C(\C)[C@H]4OC(=O)C[C@H](O)CC[C@H](C)[C@@H](OC(=O)N5CCNCC5)/C=C/[C@@H]4C)cc32)CC1 [D14] |  | −99.209% |  | 0.06 ×10⁻⁶ cm/s | 12.1 ×10⁻⁶ cm/s | 2.92 nM | −52.662% |  | 3.88 nM | −79.835% | 5.29 nM | > 168 h |  | 3.584 nM | GI50 (MOLP8 cells; MOLP-8, unconjugated payload of the ADC): 1.9 nM; Payload LD50 (MOLP8 cells; [8]): 8.5 nM; Payload Rmin (%) (MOLP8 cells; [8]): −61%
CC(=O)N1CCC(n2nnc3c(F)cc(/C=C(\C)[C@H]4OC(=O)C[C@H](O)CC[C@H](C)[C@@H](OC(=O)N5CCN(C)CC5)/C=C/[C@@H]4C)cc32)CC1 [D15] | 0.776 nM | −99.595% | 3.4 ×10⁻⁶ cm/s | 3.43 ×10⁻⁶ cm/s | 26.9 ×10⁻⁶ cm/s | 0.41 nM | −68.045% | 0.358 nM | 3.88 nM | −79.835% | 0.961 nM | > 168 h | 7 |  | Payload LD50 (N87 cells): >200 nM; Payload LD50 (HCC1954 cells; [10]): 2.037 nM; Payload Rmin (%) (HCC1954 cells; [10]): −84.412%
C/C(=C\c1cc(F)cc(N2CCOCC2)c1)[C@H]1OC(=O)C[C@H](O)CC[C@H](C)[C@@H](OC(=O)N2CCN(C)CC2)/C=C/[C@@H]1C [D17] |  | −99.033% | 20 ×10⁻⁶ cm/s | 20.2 ×10⁻⁶ cm/s | 18.2 ×10⁻⁶ cm/s |  |  |  |  |  |  |  | 7 |  | IC50 (SF3b complex; unconjugated payload, [3H]-pladienolide B probe displacement, read-out: SPA-AT S GMean IC50 (nM) SF381 (WT) HELA.2): 1.82 nM
CC[C@H](O)[C@@H](C)[C@H]1O[C@@H]1C[C@H](C)/C=C/C=C(\C)[C@H]1OC(=O)C[C@H](O)CC[C@@](C)(OC)[C@@H](OC(=O)N2CCNCC2)/C=C/[C@@H]1C [D18, (2S,3S,6S,7R,10R,E)-10-hydroxy-2-((S,2E,4E)-7-((2R,3R)-3-((2R,3S)-3-hydroxypentan-2-yl)oxiran-2-yl)-6-methylhepta-2,4-dien-2-yl)-7-methoxy-3,7-dimethyl-12-oxooxacyclododec-4-en-6-yl piperazine-1-carboxylate] |  | −99.621% |  | 1.19 ×10⁻⁶ cm/s | 27.4 ×10⁻⁶ cm/s | 0.275 nM | −92.127% | 0.208 nM |  |  | 0.883 nM |  |  | 0.863 nM | 
CC[C@H](O)[C@@H](C)[C@H]1O[C@@H]1C[C@@](C)(O)/C=C/C=C(\C)[C@H]1OC(=O)C[C@H](O)CC[C@@](C)(OC)[C@@H](OC(=O)N2CCN(CCCC(=O)O)CC2)/C=C/[C@@H]1C [D25] | 150 nM | −77.246% | 0.14 ×10⁻⁶ cm/s | 0.137 ×10⁻⁶ cm/s | 0.349 ×10⁻⁶ cm/s | > 200 nM | 40.364% | 168 nM | > 400 nM | 77.524% | > 200 nM | 120 h | 3.4 | 348.114 nM | Payload LD50 (MOLP8 cells; [8]): >400 nM; payload permeability (in words) (Caco-2 cells): poorly permeable; Payload LD50 (PC3 cells; free payload of the ADC): >400 nM
